The source of these data is US20250228239A1, “MOLECULES HAVING PESTICIDAL UTILITY, AND INTERMEDIATES, COMPOSITIONS, AND PROCESSES, RELATED THERETO” (priority 2024, published 2025).

In test [1] the test system is Beet Armyworm (Spodoptera exigua, LAPHEG). In words: Bioassays on Beet Armyworm (BAW), 128-well diet tray assay. The format is in vivo. As to conditions: Spodoptera exigua. How it is done:
(§1) Certain molecules disclosed in this document were tested against BAW and CL using procedures described in the following examples. In the reporting of the results, the “BAW & CL Rating Table” was used (See Table Section).
Bioassays on BAW were conducted using a 128-well diet tray assay. One to five second instar BAW larvae were placed in each well (3 mL) of the diet tray that had been previously filled with 1 mL of artificial diet to which 50 μg/cm^2 of the test molecule (dissolved in 50 μL of 90:10 acetone-water mixture) had been applied (to each of eight wells) and then allowed to dry. Trays were covered with a clear self-adhesive cover, vented to allow gas exchange, and held at 25° C., 14:10 light-dark for five to seven days. Percent mortality was recorded for the larvae in each well; activity in the eight wells was then averaged. The results are indicated in the table entitled “Table ABC: Biological Results” (See Table Section).

Test [2] deals with Cabbage Looper (Trichoplusia ni, TRIPNI). Description: Bioassays on Cabbage Looper (CL), 128-well diet tray assay. It counts as in vivo. As to conditions: Trichoplusia ni. As to the method:
as §1
Bioassays on CL were conducted using a 128-well diet tray assay. One to five second instar CL larvae were placed in each well (3 mL) of the diet tray that had been previously filled with 1 mL of artificial diet to which 50 μg/cm^2 of the test molecule (dissolved in 50 μL of 90:10 acetone-water mixture) had been applied (to each of eight wells) and then allowed to dry. Trays were covered with a clear self-adhesive cover, vented to allow gas exchange, and held at 25° C., 14:10 light-dark for five to seven days. Percent mortality was recorded for the larvae in each well; activity in the eight wells was then averaged. The results are indicated in the table entitled “Table ABC: Biological Results” (See Table Section).

The mark [3] stands for this setting: Beet Armyworm, rating class, read-out: BAW.
The mark [4] stands for this setting: Cabbage Looper, rating class, read-out: CL.
[5] abbreviates: Table ABC: Biological Results, species BAW, read-out: BAW.
Where [6] appears, read: Table ABC: Biological Results, species CL, read-out: CL.
Where [7] appears, read: Beet Armyworm, Table ABC / ABC-DP rating, read-out: BAW rating.
Setting [8] is: Cabbage Looper, Table ABC / ABC-DP rating, read-out: CL rating.

Read-outs that look alike come from different tables or passages of the source.

On to `O=C(Nc1ccc(F)c(NC(=O)C2CCCO2)c1F)c1cc(NC(=O)[C@H]2[C@H](c3cc(Cl)c(Cl)c(Cl)c3)C2(Cl)Cl)ccc1Cl` (stereo partly drawn) [F1647, N-(3-(2-Chloro-5-((1R,3R)-2,2-dichloro-3-(3,4,5-trichlorophenyl)cyclopropane-1-carboxamido)benzamido)-2,6-difluorophenyl)tetrahydrofuran-2-carboxamide], for which the pest or weed control at 50 µg/cm2 in test [1] (setting [3]) and in test [2] (setting [4]) was 50 to 100% in each case.
As to `O=C(Nc1ccc(F)cc1F)c1cc(NC(=O)[C@H]2[C@H](c3cc(F)c(F)c(F)c3)C2(Cl)Cl)ccc1Cl` [F1693, 2-Chloro-5-((1R,3R)-2,2-dichloro-3-(3,4,5-trifluorophenyl)cyclopropane-1-carboxamido)-N-(2,4-difluorophenyl)benzamide], the pest or weed control at 50 µg/cm2 in test [1] (setting [3]) and in test [2] (setting [4]) was 50 to 100% throughout.
Take `Nc1c(F)ccc(NC(=O)c2cc(NC(=O)[C@H]3[C@H](c4cc(Cl)c(Cl)c(Cl)c4)C3(Cl)Cl)cc(F)c2Cl)c1F` [F1325, N-(3-Amino-2,4-difluorophenyl)-2-chloro-5-((1R,3R)-2,2-dichloro-3-(3,4,5-trichlorophenyl)cyclopropane-1-carboxamido)-3-fluorobenzamide]: the pest or weed control at 50 µg/cm2 in test [1] (setting [5]) and in test [2] (setting [6]) was 50 to 100% in each case.
For the compound `O=C(Nc1ccc(F)cc1)c1cc(NC(=O)[C@H]2[C@H](c3cc(Cl)cc(Cl)c3)C2(Cl)Cl)ccc1F` (single isomer, unassigned) [F1374], the pest or weed control at 50 µg/cm2 in test [1] (setting [5]) and in test [2] (setting [6]) was 50 to 100% in each case.
Regarding `Nc1c(F)ccc(NC(=O)c2cc(NC(=O)[C@H]3[C@H](c4ccc(F)c(Br)c4)C3(Cl)Cl)ccc2Cl)c1F` [F1713, N-(3-Amino-2,4-difluorophenyl)-5-((1R,3R)-3-(3-bromo-4-fluorophenyl)-2,2-dichlorocyclopropane-1-carboxamido)-2-chlorobenzamide], the pest or weed control at 50 µg/cm2 in test [1] (setting [3]) and in test [2] (setting [4]) was 50 to 100% throughout.
As for `Cc1c(F)cc(NC(=O)[C@H]2[C@H](c3ccc(F)c(Cl)c3)C2(Cl)Cl)cc1C(=O)Nc1ccc(F)c(N)c1F` (relative stereo) [F1286, trans-N-(3-Amino-2,4-difluorophenyl)-5-(2,2-dichloro-3-(3-chloro-4-fluorophenyl)cyclopropane-1-carboxamido)-3-fluoro-2-methylbenzamide], the pest or weed control at 50 µg/cm2 in test [1] (setting [5]) and in test [2] (setting [6]) was 50 to 100% throughout.
As to `O=C(Nc1cc(NC(=O)C(F)F)c(F)cc1F)c1cc(NC(=O)[C@H]2[C@H](c3ccc(F)c(C(F)(F)F)c3)C2(Cl)Cl)cc(F)c1F` [F1586, 5-((1R,3R)-2,2-Dichloro-3-(4-fluoro-3-(trifluoromethyl)phenyl)cyclopropane-1-carboxamido)-N-(5-(2,2-difluoroacetamido)-2,4-difluorophenyl)-2,3-difluorobenzamide], the pest or weed control at 50 µg/cm2 in test [1] (setting [3]) and in test [2] (setting [4]) was 50 to 100% each time.
In the case of `CC(OC(F)(F)F)C(=O)Nc1c(F)ccc(NC(=O)c2cc(NC(=O)[C@H]3[C@H](c4cc(F)cc(C(F)(F)F)c4)C3(Cl)Cl)ccc2Cl)c1F` (stereo partly drawn) [F1773, 2-Chloro-5-((1R,3R)-2,2-dichloro-3-(3-fluoro-5-(trifluoromethyl)phenyl)cyclopropane-1-carboxamido)-N-(2,4-difluoro-3-(2-(trifluoromethoxy)propanamido)phenyl)benzamide], the pest or weed control at 50 µg/cm2 in test [1] (setting [7]) and in test [2] (setting [8]) was 50 to 100% in each case.
As for `O=C(CC(F)(F)F)NNC(=O)c1cc(NC(=O)[C@H]2[C@H](c3cc(Cl)cc(Cl)c3)C2(Cl)Cl)ccc1Cl` (relative stereo) [F2516, trans-2,2-Dichloro-N-(4-chloro-3-(2-(3,3,3-trifluoropropanoyl)hydrazine-1-carbonyl)phenyl)-3-(3,5-dichlorophenyl)cyclopropane-1-carboxamide], the pest or weed control at 50 µg/cm2 in test [1] (setting [7]) and in test [2] (setting [8]) was 50 to 100% in each case.
Regarding `Nc1cc(F)c(F)cc1NC(=O)c1cc(NC(=O)[C@H]2[C@H](c3ccc(F)c(Cl)c3)C2(Cl)Cl)ccc1Cl` [F1134, N-(2-Amino-4,5-difluorophenyl)-2-chloro-5-((1R,3R)-2,2-dichloro-3-(3-chloro-4-fluorophenyl)cyclopropane-1-carboxamido)benzamide], the pest or weed control at 50 µg/cm2 in test [1] (setting [5]) and in test [2] (setting [6]) was 50 to 100% in each case.
With `CC(C)(C)OC(=O)Nc1c(F)ccc(NC(=O)c2cc(NC(=O)[C@H]3[C@H](c4cc(Br)cc(C(F)(F)F)c4)C3(Cl)Cl)ccc2Cl)c1F` (relative stereo) [F1073, trans-tert-Butyl-(3-(5-(3-(3-bromo-5-(trifluoromethyl)phenyl)-2,2-dichlorocyclopropane-1-carboxamido)-2-chlorobenzamido)-2,6-difluorophenyl)carbamate], the pest or weed control at 50 µg/cm2 in test [1] (setting [5]) and in test [2] (setting [6]) was 50 to 100% each time.
For `Cc1cc(NC(=O)[C@H]2[C@H](c3ccc(F)c(C(F)(F)F)c3)C2(Cl)Cl)cc(C(=O)Nc2ccc(F)c(NC(=O)C(F)F)c2F)c1Cl` [F1494, 2-Chloro-5-((1R,3R)-2,2-dichloro-3-(4-fluoro-3-(trifluoromethyl)phenyl)cyclopropane-1-carboxamido)-N-(3-(2,2-difluoroacetamido)-2,4-difluorophenyl)-3-methylbenzamide], the pest or weed control at 50 µg/cm2 in test [1] (setting [3]) and in test [2] (setting [4]) was 50 to 100% throughout.
For the compound `Nc1c(F)ccc(NC(=O)c2cc(NC(=O)[C@H]3[C@H](c4ccc(F)c(C(F)F)c4)C3(Cl)Cl)ccc2Cl)c1F` (relative stereo) [F1036, trans-N-(3-Amino-2,4-difluorophenyl)-2-chloro-5-(2,2-dichloro-3-(3-(difluoromethyl)-4-fluorophenyl)cyclopropane-1-carboxamido)benzamide], the pest or weed control at 50 µg/cm2 in test [1] (setting [5]) and in test [2] (setting [6]) was 50 to 100% each time.
Take `CC(=O)Nc1ccc(F)c(NC(=O)c2cc(NC(=O)[C@H]3[C@H](c4ccc(Cl)c(Cl)c4)C3(Cl)Cl)ccc2F)c1F` [F1514, N-(3-Acetamido-2,6-difluorophenyl)-5-((1R,3R)-2,2-dichloro-3-(3,4-dichlorophenyl)cyclopropane-1-carboxamido)-2-fluorobenzamide]: the pest or weed control at 50 µg/cm2 in test [1] (setting [3]) and in test [2] (setting [4]) was 50 to 100% throughout.
Consider `O=C(Nc1c(F)ccc(NC(=O)C(F)(F)F)c1F)c1cc(NC(=O)[C@H]2[C@H](c3ccc(F)c(C(F)(F)F)c3)C2(Cl)Cl)cc(F)c1Cl` [F1346, 2-Chloro-5-((1R,3R)-2,2-dichloro-3-(4-fluoro-3-(trifluoromethyl)phenyl)cyclopropane-1-carboxamido)-N-(2,6-difluoro-3-(2,2,2-trifluoroacetamido)phenyl)-3-fluorobenzamide], for which the pest or weed control at 50 µg/cm2 in test [1] (setting [5]) and in test [2] (setting [6]) was 50 to 100% in each case.
On to `Nc1ccc(F)c(NC(=O)c2cc(NC(=O)[C@H]3[C@H](c4ccc(F)c(C(F)(F)F)c4)C3(Cl)Cl)cc(F)c2Cl)c1F` [F1339, N-(3-Amino-2,6-difluorophenyl)-2-chloro-5-((1R,3R)-2,2-dichloro-3-(4-fluoro-3-(trifluoromethyl)phenyl)cyclopropane-1-carboxamido)-3-fluorobenzamide], for which the pest or weed control at 50 µg/cm2 in test [1] (setting [5]) and in test [2] (setting [6]) was 50 to 100% each time.
Regarding `O=C(NCC(F)(F)C(F)(F)F)c1c(Cl)ccc(NC(=O)[C@H]2[C@H](c3ccc(F)c(Cl)c3)C2(Cl)Cl)c1F` [F2073, 6-Chloro-3-((1R,3R)-2,2-dichloro-3-(3-chloro-4-fluorophenyl)cyclopropane-1-carboxamido)-2-fluoro-N-(2,2,3,3,3-pentafluoropropyl)benzamide], the pest or weed control at 50 µg/cm2 in test [1] (setting [7]) and in test [2] (setting [8]) was 50 to 100% throughout.
Turning to `O=C(Nc1cc(NC(=O)C(F)F)c(F)cc1F)c1cc(NC(=O)[C@H]2[C@H](c3cc(Cl)c(Cl)c(Cl)c3)C2(Cl)Cl)ccc1Cl` [F1518, 2-Chloro-5-((1R,3R)-2,2-dichloro-3-(3,4,5-trichlorophenyl)cyclopropane-1-carboxamido)-N-(5-(2,2-difluoroacetamido)-2,4-difluorophenyl)benzamide], the pest or weed control at 50 µg/cm2 in test [1] (setting [3]) and in test [2] (setting [4]) was 50 to 100% each time.
Turning to `O=C(NCC(F)(F)F)c1cc(NC(=O)[C@H]2[C@H](c3ccc(F)c(Cl)c3)C2(Cl)Cl)cc(F)c1Cl` (relative stereo) [F2034, trans-2-Chloro-5-(2,2-dichloro-3-(3-chloro-4-fluorophenyl)cyclopropane-1-carboxamido)-3-fluoro-N-(2,2,2-trifluoroethyl)benzamide], the pest or weed control at 50 µg/cm2 in test [1] (setting [7]) and in test [2] (setting [8]) was 50 to 100% in each case.
